Experimental findings from patent US11753407B2, “Compounds for treating spinal muscular atrophy” (PTC Therapeutics, Inc., priority 2012, dated 2023) are described below.

The subject of data set [1] is Smn protein in SMA patient fibroblast cells (GM03813). The data set is described as follows: Smn protein assay in cultured cells (SMN HTRF). It is filed as cell-based, human. The settings on record: SMA patient fibroblast cells, 48 hours; for EC1.5x for Smn protein expression: 7-point concentration curve, SMN HTRF, concentration producing 1.5 times Smn protein vs DMSO vehicle control; for maximum fold (Fold) increase of Smn protein: 7-point concentration data, fold relative to vehicle control. In a few lines:
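Patient-derived SMA fibroblasts are plated, given compound for 48 h, then lysed in RIPA buffer with protease inhibitors. Lysate Smn is detected by an anti-SMN d2/kryptate HTRF pair incubated overnight. The normalized ΔF is divided by the vehicle ΔF to give fold change, from which EC1.5× and maximum fold are taken.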

For data set [2], the system named is SMN2 minigene mRNA (SMN2-A minigene) in HEK293H cells. The data set is described as follows: SMN2 minigene mRNA splicing RT-qPCR assay in cultured cells. In kind it is cell-based, human. The settings on record: Homo sapiens, HEK293-H; concentration increasing full length SMN2 mRNA 1.5-fold relative to vehicle-treated cells; HEK293H cells with SMN2-A minigene, 24 hours, 7-point concentration data; read-out: EC1.5x for production of full length SMN2 mRNA. In a few lines: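 Cells are seeded, left to attach 4-6 h, then dosed with test compound across seven concentrations and incubated 24 h. Lysates undergo RT-qPCR with primers/probe specific to the exon 7-containing minigene transcript, co-amplified with GAPDH. Fold change over vehicle is calculated, and EC1.5× marks the 1.5-fold point.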
On the technique in general: Quantitative PCR measures a nucleic acid by following its amplification.

The term melting point denotes the temperature, or range, at which the solid turns liquid. Consider `COc1ccc(-c2cc(=O)n3cc(C4=CCN(C)CC4)ccc3n2)cc1F` [Compound 204, 2-(3-fluoro-4-methoxyphenyl)-7-(1-methyl-1,2,3,6-tetrahydropyridin-4-yl)-4H-pyrido[1,2-a]pyrimidin-4-one], for which the melting point fell in the range of 129 to 132 °C. For the same compound, in data set [1], the “EC1.5x for Smn protein expression” value was “**** (an EC1.5x≤0.3 μM is indicated by four stars (****))”; the “maximum fold (Fold) increase of Smn protein” value (from here on “maximum fold (Fold) increase”) is “**** (a fold increase between >1.5 and ≤1.65 is indicated by four stars (****))”. For the same compound, the EC (1.5-fold increase) in data set [2] is under 0.1 µM.
Take `COc1ccc(-c2cc(=O)n3cc(N4CC[C@H](N(C)C)C4)ccc3n2)cc1F` [Compound 205, 7-[(3S)-3-(dimethylamino)pyrrolidin-1-yl]-2-(3-fluoro-4-methoxyphenyl)-4H-pyrido[1,2-a]pyrimidin-4-one]: the melting point fell in the range of 187 to 192 °C. For the same compound, in data set [1], the “maximum fold (Fold) increase” value is “** (a fold increase between >1.2 and ≤1.35 is indicated by two stars (**))”. The EC (1.5-fold increase) in data set [2] fell in the range of 0.3 to 1 µM.
Compound `COc1ccc(-c2cc(=O)n3cc(N4C[C@@H](O)[C@H](N(C)C)C4)ccc3n2)cc1F` [Compound 206, 7-[(3R,4R)-3-(dimethylamino)-4-hydroxypyrrolidin-1-yl]-2-(3-fluoro-4-methoxyphenyl)-4H-pyrido[1,2-a]pyrimidin-4-one] gave a melting point of 223 to 228 °C. The “maximum fold (Fold) increase” value in data set [1] was “** (a fold increase between >1.2 and ≤1.35 is indicated by two stars (**))”. The EC (1.5-fold increase) in data set [2] was in the range of 1 to 3 µM.
On to `COc1ccc(-c2cc(=O)n3cc(N4CCC(N)CC4)ccc3n2)cc1F` [Compound 207, 7-(4-aminopiperidin-1-yl)-2-(3-fluoro-4-methoxyphenyl)-4H-pyrido[1,2-a]pyrimidin-4-one], for which the melting point fell in the range of 173 to 179 °C. Moreover, the “maximum fold (Fold) increase” value in data set [1] is “*** (a fold increase between >1.35 and ≤1.5 is indicated by three stars (***))”. The EC (1.5-fold increase) in data set [2] was under 0.1 µM.
`CNC1CCN(c2ccc3nc(-c4ccc(OC)c(F)c4)cc(=O)n3c2)CC1` [Compound 208, 2-(3-fluoro-4-methoxyphenyl)-7-[4-(methylamino)piperidin-1-yl]-4H-pyrido[1,2-a]pyrimidin-4-one] showed a melting point of 167 to 171 °C. For the same compound, in data set [1], the “EC1.5x for Smn protein expression” value was “*** (an EC1.5× between >0.3 μM and ≤1 μM is indicated by three stars (***))”; the “maximum fold (Fold) increase” value was “*** (a fold increase between >1.35 and ≤1.5 is indicated by three stars (***))”. The EC (1.5-fold increase) in data set [2] was under 0.1 µM.
In the case of `Cc1cn2cc(-c3cc(=O)n4cc(N5C[C@@H](C)N[C@@H](C)C5)ccc4n3)cc(F)c2n1` [Compound 210, 7-[(3R,5S)-3,5-dimethylpiperazin-1-yl]-2-(8-fluoro-2-methylimidazo[1,2-a]pyridin-6-yl)-4H-pyrido[1,2-a]pyrimidin-4-one], the melting point was 255 to 259 °C. Moreover, in data set [1], the “EC1.5x for Smn protein expression” value was “**** (an EC1.5x≤0.3 μM is indicated by four stars (****))”; the “maximum fold (Fold) increase” value was “**** (a fold increase between >1.5 and ≤1.65 is indicated by four stars (****))”. Besides, the EC (1.5-fold increase) in data set [2] was under 0.1 µM.
Consider `Cc1cn2cc(-c3cc(=O)n4cc(N5CCCN(C)CC5)ccc4n3)cc(F)c2n1` [Compound 211, 2-(8-fluoro-2-methylimidazo[1,2-a]pyridin-6-yl)-7-(4-methyl-1,4-diazepan-1-yl)-4H-pyrido[1,2-a]pyrimidin-4-one], for which the melting point was 262 to 266 °C. Also, in data set [1], the “EC1.5x for Smn protein expression” value is given as “**** (an EC1.5x≤0.3 μM is indicated by four stars (****))”; the “maximum fold (Fold) increase” value was “**** (a fold increase between >1.5 and ≤1.65 is indicated by four stars (****))”. Further, the EC (1.5-fold increase) in data set [2] is under 0.1 µM.
`COc1ccc(-c2cc(=O)n3cc(N4C[C@H]5CNC[C@H]5C4)ccc3n2)cc1F` [Compound 212, 2-(3-fluoro-4-methoxyphenyl)-7-[(3aR,6aS)-hexahydropyrrolo[3,4-c]pyrrol-2(1H)-yl]-4H-pyrido[1,2-a]pyrimidin-4-one] returned a melting point of 195 to 200 °C. In addition, in data set [1], the “EC1.5x for Smn protein expression” value is on record as “**** (an EC1.5x≤0.3 μM is indicated by four stars (****))”; the “maximum fold (Fold) increase” value was “**** (a fold increase between >1.5 and ≤1.65 is indicated by four stars (****))”. Further, the EC (1.5-fold increase) in data set [2] was in the range of 0.1 to 0.3 µM.
The compound `COc1ccc(-c2cc(=O)n3cc(N4C[C@H]5CN(C)C[C@H]5C4)ccc3n2)cc1F` [Compound 213, 2-(3-fluoro-4-methoxyphenyl)-7-[(3aR,6aS)-5-methylhexahydropyrrolo[3,4-c]pyrrol-2(1H)-yl]-4H-pyrido[1,2-a]pyrimidin-4-one] gave a melting point of 204 to 210 °C. Further, in data set [1], the “EC1.5x for Smn protein expression” value is reported as “**** (an EC1.5x≤0.3 μM is indicated by four stars (****))”; the “maximum fold (Fold) increase” value was “*** (a fold increase between >1.35 and ≤1.5 is indicated by three stars (***))”. Further, the EC (1.5-fold increase) in data set [2] lay within 0.1 to 0.3 µM.
The compound `COc1ccc(-c2cc(=O)n3cc(C4CCN(CCO)CC4)ccc3n2)cc1OC` [Compound 214, 2-(3,4-dimethoxyphenyl)-7-[1-(2-hydroxyethyl)piperidin-4-yl]-4H-pyrido[1,2-a]pyrimidin-4-one] gave a melting point of 145 to 148 °C. Moreover, in data set [1], the “EC1.5x for Smn protein expression” value was “** (an EC1.5× between >1 μM and ≤3 μM is indicated by two stars (**))”; the “maximum fold (Fold) increase” value is “**** (a fold increase between >1.5 and ≤1.65 is indicated by four stars (****))”. Also, the EC (1.5-fold increase) in data set [2] was 0.3 to 1 µM.
With `COc1cc(-c2cc(=O)n3cc(N4CCN[C@@H](C)C4)ccc3n2)ccc1F` [Compound 215, 2-(4-fluoro-3-methoxyphenyl)-7-[(3S)-3-methylpiperazin-1-yl]-4H-pyrido[1,2-a]pyrimidin-4-one], the melting point fell in the range of 130 to 135 °C. The “maximum fold (Fold) increase” value in data set [1] is “*** (a fold increase between >1.35 and ≤1.5 is indicated by three stars (***))”. In addition, the EC (1.5-fold increase) in data set [2] is 0.3 to 1 µM.
With `COc1cc(-c2cc(=O)n3cc(N4CCNCC4)ccc3n2)ccc1F` [Compound 216, 2-(4-fluoro-3-methoxyphenyl)-7-(piperazin-1-yl)-4H-pyrido[1,2-a]pyrimidin-4-one], the melting point fell in the range of 170 to 172 °C. Moreover, in data set [1], the “maximum fold (Fold) increase” value was “*** (a fold increase between >1.35 and ≤1.5 is indicated by three stars (***))”. Moreover, in data set [2], the EC (1.5-fold increase) was in the range of 0.3 to 1 µM.
Consider `COc1cc(-c2cc(=O)n3cc(N4CCN[C@@H](C)C4)ccc3n2)cc(F)c1F` [Compound 217, 2-(3,4-difluoro-5-methoxyphenyl)-7-[(3S)-3-methylpiperazin-1-yl]-4H-pyrido[1,2-a]pyrimidin-4-one], for which the melting point lay in the range of 160 to 164 °C. Moreover, in data set [1], the “maximum fold (Fold) increase” value was “*** (a fold increase between >1.35 and ≤1.5 is indicated by three stars (***))”. Moreover, the EC (1.5-fold increase) in data set [2] fell in the range of 0.3 to 1 µM.
Compound `COc1cc(-c2cc(=O)n3cc(N4CCNCC4)ccc3n2)cc(F)c1F` [Compound 218, 2-(3,4-difluoro-5-methoxyphenyl)-7-(piperazin-1-yl)-4H-pyrido[1,2-a]pyrimidin-4-one] registered a melting point of 155 to 160 °C. In data set [1], the “EC1.5x for Smn protein expression” value is “** (an EC1.5× between >1 μM and ≤3 μM is indicated by two stars (**))”; the “maximum fold (Fold) increase” value is “*** (a fold increase between >1.35 and ≤1.5 is indicated by three stars (***))”. The EC (1.5-fold increase) in data set [2] was in the range of 0.1 to 0.3 µM.
`Cc1nc2ccc(-c3cc(=O)n4cc(N5CCNCC5)ccc4n3)cc2s1` [Compound 219, 2-(2-methyl-1,3-benzothiazol-6-yl)-7-(piperazin-1-yl)-4H-pyrido[1,2-a]pyrimidin-4-one] registered a melting point of 218 to 220 °C. In data set [1], the “EC1.5x for Smn protein expression” value is recorded as “**** (an EC1.5x≤0.3 μM is indicated by four stars (****))”; the “maximum fold (Fold) increase” value was “**** (a fold increase between >1.5 and ≤1.65 is indicated by four stars (****))”. Moreover, in data set [2], the EC (1.5-fold increase) was under 0.1 µM.
`Cc1nc2ccc(-c3cc(=O)n4cc(N5CCN[C@@H](C)C5)ccc4n3)cc2s1` [Compound 221, 2-(2-methyl-1,3-benzothiazol-6-yl)-7-[(3S)-3-methylpiperazin-1-yl]-4H-pyrido[1,2-a]pyrimidin-4-one]: the melting point was 214 to 216 °C. In data set [1], the “EC1.5x for Smn protein expression” value is given as “**** (an EC1.5x≤0.3 μM is indicated by four stars (****))” and the “maximum fold (Fold) increase” value was “***** (a fold increase >1.65 is indicated by five stars (*****))”. In addition, the EC (1.5-fold increase) in data set [2] was under 0.1 µM.
`CN[C@H]1CCN(c2ccc3nc(-c4ccc(OC)c(F)c4)cc(=O)n3c2)C1` [Compound 222, 2-(3-fluoro-4-methoxyphenyl)-7-[(3S)-3-(methylamino)pyrrolidin-1-yl]-4H-pyrido[1,2-a]pyrimidin-4-one] yielded a melting point of 208 to 216 °C. Also, the “maximum fold (Fold) increase” value in data set [1] was “*** (a fold increase between >1.35 and ≤1.5 is indicated by three stars (***))”. In addition, the EC (1.5-fold increase) in data set [2] lay in the range of 0.3 to 1 µM.
